According to patent publication US8748624B2, “Picolinamido-propanoic acid derivatives useful as glucagon receptor antagonists” (Janssen Pharmaceutica NV, priority 2011, dated 2014):

Columns and labels:
[1] = target: human glucagon receptor (GCGR) (Homo sapiens (Human), UniProt P47871); experiment: Inhibition of 125I-glucagon binding to membranes from HEK293 cells expressing the human glucagon receptor; conditions: membranes of hGluc-1 HEK cells, 125I-glucagon 0.3 nM, 2 hours room temperature; IC50 converted to Ki; average if tested more than once
Procedure: Inhibition ^125I-Glucagon Binding to Membranes from HEK293 Cells Expressing the Human Glucagon Receptor (GCGR)
Full-length human GCGR (Accession Number: NM000160) subcloned into pcDNA3.1 was stably transfected into HEK293 cells (hGluc-1 HEK) and maintained under G418 selection (500 μg/mL). Cell cultures were maintained in DMEM/F12 media supplemented with 10% FBS and 1% GlutaMax. Membranes were prepared from these cells as follows: cells were harvested from T225 flasks and re-suspended in hypotonic lysis buffer, 50 mM HEPES pH 7.4 supplemented with Complete Protease inhibitors (Boehringer Mannheim, Indianapolis, Ind.). Cells were dounced 20 times on ice and spun at 700×g to remove nuclei and unlysed cells. The resulting pellet was re-suspended in hypotonic lysis buffer and the above step was repeated. Supernatants from the low speed centrifugation were combined and subsequently spun at 100K×g for 1 hr at 4° C. and the resulting pellet was re-suspended in buffer containing 50 mM HEPES pH 7.4 and 10% sucrose and the protein concentration was adjusted at 1 mg/mL as determined in the BCA assay. Membranes were aliquoted and stored at −80° C. The binding assay was performed by a filtration method in a 384 well format. Membranes at a final protein concentration of 6 μg/well were incubated with ^125I-glucagon at 0.3 nM and in the presence of compound for 2 hours at room temperature in a total reaction volume of 40 μL per well. Assay buffer consisted of 50 mM HEPES, pH 7.4, 5 mM MgCl2, 1 mM CaCl2 and 0.2% BSA. 30 μL of the reaction was then transferred to PEI treated filter plates and followed by filter aspiration. Plates were then washed 5× and allowed to dry at room temperature overnight. The next day the bottom of the plate was covered with seal tape and scintillant was added. Total counts retained by the filters were quantified with a Top Count instrument. IC50's were generated by using a non-linear regression macro driven in Excel and converted to K's.

human GCGR = human GCGR (Homo sapiens (Human), UniProt P47871); experiment: Cellular functional assay, cAMP readout (glucagon-stimulated cAMP in HEK293 cells expressing human GCGR); format: cell-based; conditions: hGluc-1 HEK cells, LANCE TR-FRET, IC50 converted to Ki, average if tested more than once
Procedure: IC50 Values in Cellular Functional Assays: cAMP Readout
Full-length human GCGR (Accession Number: NM000160) subcloned into pcDNA3.1 was stably transfected into HEK293 cells (hGluc-1 HEK) and maintained under G418 selection (500 μg/mL). Cell cultures were maintained in DMEM/F12 media supplemented with 10% FBS and 1% GlutaMax. Glucagon stimulated cAMP was quantified using LANCE technology as per manufacturer instructions. On the day of the experiment, spent media was removed and cells were washed with Hank's Buffered Saline solution (HBSS) and cells were harvested with non-enzymatic cell dissociation solution, then washed once with HBSS. Cells were re-suspended in stimulation buffer at a concentration of 0.83×10^6 cells/ml and cAMP detection antibody was added. 6 μl/well of this solution was then dispensed in a 384 well plate (cell density 5000 cells/well). Test compound was serially diluted in DMSO and 50 nl were dispensed on top of the cell solution and allowed to incubate for 30 minutes. 6 μl of a 2× glucagon solution (final concentration in assay […]) was then added and the reaction was terminated after 5 minutes with the addition of detection mix. The mixture was incubated, protected from light for 1.5 h. cAMP levels were quantified by TR-FRET in an EnVision instrument against a known standard. IC50's were generated by using a non-linear regression macro driven in Excel and converted to K, values.

human GCGR, sequence (P47871 26-477): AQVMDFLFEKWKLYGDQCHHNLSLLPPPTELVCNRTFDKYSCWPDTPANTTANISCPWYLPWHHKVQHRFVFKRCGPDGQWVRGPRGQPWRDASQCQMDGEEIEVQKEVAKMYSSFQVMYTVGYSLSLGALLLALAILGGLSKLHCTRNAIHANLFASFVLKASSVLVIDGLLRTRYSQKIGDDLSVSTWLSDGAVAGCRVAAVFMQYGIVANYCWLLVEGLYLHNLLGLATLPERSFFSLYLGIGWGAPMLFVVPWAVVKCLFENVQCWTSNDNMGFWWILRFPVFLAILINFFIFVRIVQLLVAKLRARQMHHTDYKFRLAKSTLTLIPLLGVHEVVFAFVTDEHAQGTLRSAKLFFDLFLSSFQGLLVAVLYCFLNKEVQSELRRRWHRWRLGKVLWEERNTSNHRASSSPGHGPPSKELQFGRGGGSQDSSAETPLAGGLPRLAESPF
human glucagon receptor (GCGR), sequence (P47871 26-477): as above

Ki [1]	Ki (human GCGR)	Structure (SMILES)
14.4 nM	35 nM	O=C(O)CCNC(=O)c1ccc(-c2cc(C(F)(F)F)ccc2CNc2ccc(-c3ccc(F)c(Cl)c3)c(Cl)c2)cn1 [Compound 35, 3-(5-(2-(((2,3′-dichloro-4′-fluoro-[1,1′-biphenyl]-4-yl)amino)methyl)-5-(trifluoromethyl)phenyl)picolinamido)propanoic acid]
25.4 nM	84.4 nM	O=C(O)CCNC(=O)c1ccc(-c2cc(F)c(F)cc2CNc2ccc(-c3ccc(Cl)cc3F)c(Cl)c2)cn1 [Compound 104, 3-(5-(2-(((2,4′-dichloro-2′-fluoro-[1,1′-biphenyl]-4-yl)amino)methyl)-4,5-difluorophenyl)picolinamido)propanoic acid]
22.9 nM	68.9 nM	O=C(O)CCNC(=O)c1ccc(-c2cc(F)c(F)cc2CNc2ccc(-c3ccc(Cl)cc3)c(Cl)c2)cn1 [Compound 103, 3-(5-(2-(((2,4′-dichloro-[1,1′-biphenyl]-4-yl)amino)methyl)-4,5-difluorophenyl)picolinamido)propanoic acid]
74.2 nM	205 nM	O=C(O)CCNC(=O)c1ccc(-c2cc(F)ccc2CNc2ccc(-c3ccc(Cl)cc3Cl)c(F)c2)cn1 [Compound 57, 3-(5-(2-(((2′,4′-dichloro-2-fluoro-[1,1′-biphenyl]-4-yl)amino)methyl)-5-fluorophenyl)picolinamido)propanoic acid]
67.8 nM	120 nM	O=C(O)CCNC(=O)c1ccc(-c2cc(F)c(F)cc2CNc2ccc(-c3ccc(Cl)cc3Cl)cc2)cn1 [Compound 118, 3-(5-(2-(((2′,4′-dichloro-[1,1′-biphenyl]-4-yl)amino)methyl)-4,5-difluorophenyl)picolinamido)propanoic acid]
47.3 nM	58.4 nM	O=C(O)CCNC(=O)c1ccc(-c2cc(Cl)ccc2CNc2ccc(-c3ccc(Cl)c(Cl)c3)cc2)cn1 [Compound 58, 3-(5-(5-chloro-2-(((3′,4′-dichloro-[1,1′-biphenyl]-4-yl)amino)methyl)phenyl)picolinamido)propanoic acid]
123 nM	1930 nM	O=C(O)CCNC(=O)c1ccc(-c2cc(Cl)ccc2CNc2ccc(-c3ccccc3OC(F)(F)F)cc2)cn1 [Compound 132, 3-(5-(5-chloro-2-(((2′-(trifluoromethoxy)-[1,1′-biphenyl]-4-yl)amino)methyl)phenyl)picolinamido)propanoic acid]
43.8 nM	50.5 nM	O=C(O)CCNC(=O)c1ccc(-c2cc(Cl)ccc2C(=O)Nc2ccc(-c3ccc(Cl)cc3)cc2)cn1 [Compound 16, 3-(5-(5-chloro-2-((4% chloro-[1,1′-biphenyl]-4-yl)carbamoyl)phenyl)picolinamido)propanoic acid]
38.3 nM	600 nM	O=C(O)CCNC(=O)c1ccc(-c2cc(Cl)ccc2CNc2ccc(-c3cccc(F)c3)cc2)cn1 [Compound 134, 3-(5-(5-chloro-2-(((3′-fluoro-[1,1′-biphenyl]-4-yl)amino)methyl)phenyl)picolinamido)propanoic acid]
31.6 nM	140 nM	O=C(O)CCNC(=O)c1ccc(-c2cc(Cl)ccc2CNc2ccc(-c3ccc(F)cc3Cl)cc2)cn1 [Compound 152, 3-(5-(5-chloro-2-(((2′-chloro-4′-fluoro-[1,1′-biphenyl]-4-yl)amino)methyl)phenyl)picolinamido)propanoic acid]
21.5 nM	84.3 nM	O=C(O)CCNC(=O)c1ccc(-c2cc(Cl)ccc2CNc2ccc(-c3ccc(OC(F)(F)F)cc3)c(Cl)c2)cn1 [Compound 140, 3-(5-(5-chloro-2-(((2-chloro-4′-(trifluoromethoxy)-[1,1′-biphenyl]-4-yl)amino)methyl)phenyl)picolinamido)propanoic acid]
22.4 nM	44.8 nM	O=C(O)CCNC(=O)c1ccc(-c2cc(Cl)ccc2CNc2ccc(-c3ccc(Cl)cc3Cl)cc2)cn1 [Compound 7, 3-(5-(5-chloro-2-(((2′,4′-dichloro-[1,1′-biphenyl]-4-yl)amino)methyl)phenyl)picolinamido)propanoic acid]
16.5 nM	113 nM	Cc1cc(F)ccc1-c1ccc(NCc2ccc(Cl)cc2-c2ccc(C(=O)NCCC(=O)O)nc2)cc1 [Compound 151, 3-(5-(5-chloro-2-(((4′-fluoro-2′-methyl-[1,1′-biphenyl]-4-yl)amino)methyl)phenyl)picolinamido)propanoic acid]
33.6 nM	281 nM	O=C(O)CCNC(=O)c1ccc(-c2cc(Cl)ccc2CNc2ccc(-c3ccc(C(F)(F)F)cc3)c(F)c2)cn1 [Compound 90, 3-(5-(5-chloro-2-(((2-fluoro-4′-(trifluoromethyl)-[1,1′-biphenyl]-4-yl)amino)methyl)phenyl)picolinamido)propanoic acid]
22.5 nM	22.4 nM	O=C(O)CCNC(=O)c1ccc(-c2cc(C(F)(F)F)ccc2CNc2ccc(-c3cccc(C(F)(F)F)c3Cl)c(Cl)c2)cn1 [Compound 38, 3-(5-(2-(((2,2′-dichloro-3′-(trifluoromethyl)-[1,1′-biphenyl]-4-yl)amino)methyl)-5-(trifluoromethyl)phenyl)picolinamido)propanoic acid]
39.3 nM	311 nM	O=C(O)CCNC(=O)c1ccc(-c2cc(Cl)ccc2CNc2ccc(-c3ccc(Cl)c(F)c3)cc2F)cn1 [Compound 13, 3-(5-(5-chloro-2-(((4′-chloro-3,3′-difluoro-[1,1′-biphenyl]-4-yl)amino)methyl)phenyl)picolinamido)propanoic acid]
33.9 nM	90.6 nM	O=C(O)CCNC(=O)c1ccc(-c2cc(Cl)ccc2CNc2ccc(-c3ccc(F)cc3)cc2)cn1 [Compound 15, 3-(5-(5-chloro-2-(((4′-fluoro-[1,1′-biphenyl]-4-yl)amino)methyl)phenyl)picolinamido)propanoic acid]
85.2 nM	500 nM	Cc1cccc(CNc2ccc(-c3ccc(Cl)cc3)cc2)c1-c1ccc(C(=O)NCCC(=O)O)nc1 [Compound 69, 3-(5-(2-(((4′-chloro-[1,1′-biphenyl]-4-yl)amino)methyl)-6-methylphenyl)picolinamido)propanoic acid]
32.9 nM	28 nM	Cc1cc(Cl)ccc1-c1ccc(NC(=O)c2ccc(Cl)cc2-c2ccc(C(=O)NCCC(=O)O)nc2)cc1 [Compound 153, 3-(5-(5-chloro-2-((4′-chloro-2′-methyl-[1,1′-biphenyl]-4-yl)carbamoyl)phenyl)picolinamido)propanoic acid]
20.4 nM	28.3 nM	O=C(O)CCNC(=O)c1ccc(-c2cc(C(F)(F)F)ccc2CNc2ccc(-c3cccc(C(F)(F)F)c3Cl)cc2)cn1 [Compound 41, 3-(5-(2-(((2′-chloro-3′-(trifluoromethyl)-[1,1′-biphenyl]-4-yl)amino)methyl)-5-(trifluoromethyl)phenyl)picolinamido)propanoic acid]
63.9 nM	3000 nM	O=C(O)CCNC(=O)c1ccc(-c2cc(Cl)ccc2CNc2ccc(-c3ccccc3Cl)cc2)cn1 [Compound 135, 3-(5-(5-chloro-2-(((2′-chloro-[1,1′-biphenyl]-4-yl)amino)methyl)phenyl)picolinamido)propanoic acid]
39.6 nM	45.8 nM	O=C(O)CCNC(=O)c1ccc(-c2cc(Cl)ccc2C(=O)Nc2ccc(-c3ccc(Cl)cc3Cl)cc2)cn1 [Compound 19, 3-(5-(5-chloro-2-((2′,4′-dichloro-[1,1′-biphenyl]-4-yl)carbamoyl)phenyl)picolinamido)propanoic acid]
72.4 nM	320 nM	CC(C)(C)c1ccc(-c2ccc(NCc3ccc(Cl)cc3-c3ccc(C(=O)NCCC(=O)O)nc3)cc2)cc1 [Compound 59, 3-(5-(2-(((4′-(tert-butyl)-[1,1′-biphenyl]-4-yl)amino)methyl)-5-chlorophenyl)picolinamido)propanoic acid]
